From publication PMC7582905, “Effect of Disulfide Cyclization of Ultrashort Cationic Lipopeptides on Antimicrobial Activity and Cytotoxicity” (International Journal of Molecular Sciences, 2020)
Converted amounts (≈) assume the structure as drawn. Where a SMILES comes first, the peptide text is derived from it. Bridges are numbered along the chain shown (N, C = ends). The star is where a group is joined. Palmitoyl = CCCCCCCCCCCCCCCC(=O)*

Tests used:
Format in all cases: cell-based
[1] = system: Candida lipolytica PCM 2680-FY; conditions: 24 h
Description: (§1) The Staphylococcus aureus ATCC 25923, Staphylococcus epidermidis ATCC 14990, Escherichia coli ATCC 25922, Pseudomonas aeruginosa ATCC 9027, Candida albicans ATCC 10231, Candida glabrata ATCC 15126, Candida lipolytica PCM 2680-FY, and Candida tropicalis PCM 2709-FY strains were acquired from the Polish Collection of Microorganisms (PCM, Polish Academy of Sciences, Wrocław, Poland) and from the American Type Culture Collection (ATCC). All the strains were stored at −80 °C in Roti-Store cryo vials and before the tests were transferred into fresh Mueller–Hinton broth (MHB, Biocorp, Warsaw, Poland) for bacteria or RPMI-1640 (Sigma-Aldrich, Steinheim, Germany) for fungi and incubated for 24 h at 37 °C. Then, the cultures were seeded on Mueller–Hinton agar (BioMaxima, Lublin, Poland) or Sabouraud dextrose agar (SDA, BioMaxima, Lublin, Poland) plates, respectively, and incubated as just mentioned. These agar cultures were used for further microbiological assays. Cell densities for all assays were adjusted spectrophotometrically (Multiskan GO Microplate Spectrophotometer, Thermo Fisher Scientific, Vantaa, Finland) at 600 and 660 nm for bacteria and fungi, respectively.
(§2) The MICs were determined by broth microdilution method according to the Clinical and Laboratory Standard Institute guidelines For this purpose, initial inoculums of bacteria (5 × 10^5 CFU/mL) in MHB and yeasts (2 × 10^3 CFU/mL) in RPMI-1640 with 2% D-glucose were exposed to the ranging concentration of lipopeptides (0.5–256 μg/mL) and incubated at 37 °C for 18 h and 24 h, respectively. The experiments were conducted on 96-well microtiter polystyrene plates. The growth was assessed visually after incubation and the MIC was assumed as the lowest peptide concentration at which a noticeable growth of microorganisms was inhibited. All experiments were conducted in triplicate.

[2] = system: Candida tropicalis PCM 2709-FY; conditions: PCM 2709-FY, 24 h
Description: as §1, §2

[3] = system: Pseudomonas aeruginosa ATCC 9027; conditions: ATCC 9027, 18 h
Description: as §1, §2

[4] = system: Candida glabrata ATCC 15126; conditions: ATCC 15126, 24 h
Description: as §1, §2

[5] = system: Staphylococcus epidermidis ATCC 14990; conditions: ATCC 14990, 18 h
Description: as §1, §2

[6] = system: Escherichia coli ATCC 25922; conditions: ATCC 25922, 18 h
Description: as §1, §2

[7] = system: Candida albicans ATCC 10231; conditions: ATCC 10231, 24 h
Description: as §1, §2

[8] = system: Candida lipolytica PCM 2680-FY; conditions: 24 h; remark: listed apart in the source
Description: as §1
(§3) MBECs were determined on 96-well polystyrene flat-bottom plates. For this purpose, 24 h cultures of microorganisms were diluted to obtain final density 5.0 × 10^5 CFU/mL and 2.0 × 10^5 CFU/mL of bacteria and fungi, respectively. Briefly, 100 µL of cell suspension was added into the test plates. After 24 h of incubation at 37 °C the wells were rinsed three times with a phosphate buffer saline (PBS, pH 7.4) to remove non-adherent cells. Subsequently, 100 μL of the test compounds in concentration range (0.5–256 μg/mL) were added to each well. After 24 h of incubation at 37 °C, 20 μL of a cell viability reagent was added (resazurin, 4 g/L; Sigma Aldrich, St. Louis, MO, USA). The MBEC was read after 1 h. The determined values were recorded as the lowest concentration at which the reduction of resazurin (from blue to pink) was lower or equal to 10 ± 0.5% as compared to the positive (100%) and negative (0%) controls. The reduction was monitored by measuring absorbance at 570 nm (reduced) and 600 nm (oxidized) using a microplate spectrophotometer (Multiskan GO Microplate Spectrophotometer, Thermo Fisher Scientific, Vantaa, Finland). All experiments were conducted in triplicate.

[9] = system: Candida tropicalis PCM 2709-FY; conditions: PCM 2709-FY, 24 h; remark: listed apart in the source
Description: as §1, §3

[10] = system: Pseudomonas aeruginosa ATCC 9027; conditions: ATCC 9027, 24 h
Description: as §1, §3

[11] = system: Candida glabrata ATCC 15126; conditions: ATCC 15126, 24 h; remark: listed apart in the source
Description: as §1, §3

[12] = system: Staphylococcus epidermidis ATCC 14990; conditions: ATCC 14990, 24 h
Description: as §1, §3

[13] = system: Escherichia coli ATCC 25922; conditions: ATCC 25922, 24 h
Description: as §1, §3

[14] = system: Candida albicans ATCC 10231; conditions: ATCC 10231, 24 h; remark: listed apart in the source
Description: as §1, §3

[15] = system: human keratinocytes (HaCaT); test: MTT assay; conditions: 24 h incubation at 37 °C, six replicates per concentration, repeated at least twice
Description: (§4) To assess the cytotoxicity of the test lipopeptides (IC50), the classic MTT assay on 96-well polystyrene plates was performed for human keratinocytes (HaCaT) and human cervical adenocarcinoma cell line (HeLa S3) acquired from the ATCC. The assay utilizes colorimetric determination of the cell metabolic activity and the color intensity reflects the number of live cells that can be measured spectrophotometrically. The cell line was cultured in a Dulbecco’s modified Eagle Medium (Invitrogen) supplemented with 10% fetal bovine serum (v/v), 100 units/mL of penicillin, 100 μg/mL of streptomycin, and 2 mM l-glutamine and was stored at 37 °C in a humidified 5% CO2 incubator. Briefly, a day after plating of 500 cells per well, a series of concentrations (0.1–200 μg/mL) of the test compounds were applied. DMSO was added to the control cells at a final concentration of 1.0% (v/v), which was related to the maximal concentration of the solvent compounds used in the experiment. After 24 h of incubation with the lipopeptides at 37 °C in a humidified 5% CO2 incubator, a medium containing 1 mg/mL of MTT (3-(4,5-dimethylthiazol-2-yl)-2,5-diphenyltetrazolium bromide) was added to the wells up to a final concentration of 0.5 mg/mL. Subsequently, the plates were incubated at 37 °C for 4 h. Then, the medium was removed by suction, and the formazan product was solubilized with DMSO. The background absorbance at 630 nm was subtracted from that at 570 nm for each well (Epoch, BioTek Instruments, Winooski, VT, USA). Six replicates were conducted for each concentration. All experiments were repeated at least twice and the resulting IC50 values were calculated with a GraFit 7 software (v. 7.0, Erithacus, Berkley, CA, USA).

[16] = system: human cervical adenocarcinoma cell line (HeLa S3); test: MTT assay; conditions: 24 h incubation at 37 °C, six replicates per concentration, repeated at least twice
Description: as §4

Row | MIC C. lipolytica [1] | MIC C. tropicalis [2] | MIC P. aeruginosa [3] | MIC C. glabrata [4] | MIC S. epidermidis [5] | MIC E. coli [6] | MIC C. albicans [7] | HeLa IC50 [16] | Compound | MBEC C. lipolytica [8] | MBEC C. tropicalis [9] | MBEC P. aeruginosa [10] | MBEC C. glabrata [11] | MBEC S. epidermidis [12] | MBEC E. coli [13] | MBEC C. albicans [14] | HaCaT IC50 [15]
1 | 4 µg/mL (≈ 4 µM) | 4 µg/mL (≈ 4 µM) | 256 µg/mL (≈ 256 µM) | 8 µg/mL (≈ 8 µM) | 4 µg/mL (≈ 4 µM) | 16 µg/mL (≈ 16 µM) | 16 µg/mL (≈ 16 µM) | 21.9 ± 4.5 µg/mL | CCCCCCCCCCCCCCCC(=O)N[C@H]1CSSC[C@@H](C(N)=O)NC(=O)[C@H](CCCCN)NC(=O)[C@H](CCCNC(=N)N)NC(=O)[C@H](CCCCN)NC(=O)[C@H](CCCCN)NC1=O [C5, C16-CKKRKC-NH2] (Palmitoyl-CKKRKC-NH2; disulfide 1-6) | 16 µg/mL | 32 µg/mL | 256 µg/mL | 64 µg/mL | 64 µg/mL | 128 µg/mL | 64 µg/mL | 12.9 ± 4.6 µg/mL
2 | 4 µg/mL (≈ 3.89 µM) | 4 µg/mL (≈ 3.89 µM) | 256 µg/mL (≈ 249 µM) | 4 µg/mL (≈ 3.89 µM) | 4 µg/mL (≈ 3.89 µM) | 16 µg/mL (≈ 15.6 µM) | 16 µg/mL (≈ 15.6 µM) | 20.9 ± 2.1 µg/mL | CCCCCCCCCCCCCCCC(=O)N[C@H]1CSSC[C@@H](C(N)=O)NC(=O)[C@H](CCCCN)NC(=O)[C@H](CCCCN)NC(=O)[C@H](CCCNC(=N)N)NC(=O)[C@H](CCCNC(=N)N)NC1=O [C7, C16-CRRKKC-NH2] (Palmitoyl-CRRKKC-NH2; disulfide 1-6) | 16 µg/mL | 32 µg/mL | 256 µg/mL | 64 µg/mL | 64 µg/mL | 256 µg/mL | 64 µg/mL | 21.3 ± 8.2 µg/mL
